Patent publication US9006454B2, “Dihydroorotate dehydrogenase inhibitors” (Merck Serono S.A., priority 2009, dated 2015)

Assays:
Jurkat cells = experiment: Measurement of cell proliferation (Jurkat cell), XTT assay; format: cell-based; conditions: Homo sapiens, Jurkat; for inhibition at 1 µM: compound at 1 uM, read-out: % inh Jurkat_cells @ 1 uM (%); for EC50: 72 h, XTT cell viability
Protocol: See also Roehm, N et al [1991] An improved colorimetric assay for cell proliferation and viability utilizing the tetrazolium salt XTT. J. Immunol. Methods 142:257-265.
Culture Jurkat cells in T-25 flasks at a density of 0.2×10^6/ml 2-3 days before the day of experiment set up.
Centrifuge Jurkat T-cell suspension at 1200 rpm for 10 minutes and resuspend cells again in fresh RPMI medium with 10% FBS.
Count the cells and dilute suspension to a density of 2×10^6 cells/ml. Seed 50 μL of this suspension in each well of a 96 well plate (100,000 cells per well). Keep the edges of the plate empty to avoid evaporation.
Serially dilute DMSO stocks of compounds to get different concentrations for an EC50 curve. 50 μL of compound diluted in media (2× concentration required in well) is added to each well. DMSO concentration should be kept constant at 0.25-0.5% for all wells.
Typically, for all compounds with IC50<1 μM, compound concentration can start at 10 μM followed by half log dilutions for a total of 8-10 concentrations. Each concentration has to be tested in triplicate.
Include controls such as cells without compound (with same DMSO concentration as compound wells), and media control
Incubate the 96 well plate in a CO2 incubator at 37° C. for 72 hrs before determining cell viability using XTT assay
XTT assay: to each well, add 50 μL of 1 mg/ml XTT solution with 20 μl of PMS/mL. Read the plates after 2 hours at 465 nm using the spectrophotometer. XTT reading for media without cells is used as background reading.
Calculate % cell viability assuming that the cells without compound are 100% viable.
Plot % cell viability as a function of concentration and determine EC50 by using software such as Graph Pad Prism to fit the curve.

DHODH = DHODH (Homo sapiens (Human), UniProt Q02127); experiment: DHODH activity assay (coupled enzyme assay, DCIP reduction, absorbance at 610 nm); format: biochemical; conditions: for inhibition at 10 µM: compound at 10 uM, read-out: inh @ 10 uM hDHODH (%)
DHODH, sequence (Q02127 whole entry): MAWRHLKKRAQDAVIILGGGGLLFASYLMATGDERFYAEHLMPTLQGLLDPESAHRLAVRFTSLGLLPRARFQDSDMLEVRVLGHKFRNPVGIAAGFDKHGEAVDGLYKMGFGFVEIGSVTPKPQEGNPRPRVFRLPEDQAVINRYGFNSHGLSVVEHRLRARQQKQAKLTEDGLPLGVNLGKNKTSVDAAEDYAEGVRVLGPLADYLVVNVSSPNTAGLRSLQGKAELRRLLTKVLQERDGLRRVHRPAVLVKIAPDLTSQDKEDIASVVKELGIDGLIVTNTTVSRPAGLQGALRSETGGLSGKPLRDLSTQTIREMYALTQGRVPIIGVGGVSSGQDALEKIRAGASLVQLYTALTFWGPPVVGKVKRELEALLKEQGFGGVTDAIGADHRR
Protocol: The DHODH activity assay is a coupled enzyme assay in which oxidation of DHO and subsequent reduction of ubiquinone are stoichiometrically equivalent to the reduction of DCIP ([…]). The reduction of DCIP is accompanied by a loss of absorbance at 610 nm.
Buffer Preparation: 50 mM tris HCl, 150 mM KCl, and pH 8.0, 0.8% triton.
5 μL of Dimethyl sulfoxide or a compound of formula I in DMSO solution was added to the wells of a 96 well plate. Compounds of formula I were measured at 10 μM.
Protein along with buffer was added, so that the total volume including the DMSO was 87 μL. Compound and protein were incubated for half an hour at room temperature after mixing. 5 μL of 20 mM solution of L-Dihydroorotic acid, 5 μL of 2 mM solution of Decylubiquinone and 3 μL of 2 mM solution of 2,6-Dichloroindophenol sodium salt hydrate were added to the above solution (total assay volume 100 μL). The mixture was stirred for 2 min and absorbance was recorded at every 10 min at 610 nanometers.
Percent Inhibition is Calculated as Follows
Positive control contains DMSO, buffer, enzyme and substrates
No Enzyme reaction contains DMSO, buffer and substrates
IC50 determination: • A 2 mM DMSO stock of the compound of formula I to be examined was prepared. ⅓rd dilutions were made as follows:
5 μL of each stock of compound of formula I (solution indicated in column 4 of table) was used for each 100 μL assay. Therefore, 5 μL of the 2 mM stock provided 100 μL of 100 μM solution of compound of formula I, when made up with buffer, protein and substrate. See also: Ulrich et al. (2001) Eur. J. Biochem. 268, 1861-1868.

| Structure (SMILES) | inhibition at 1 µM (Jurkat cells) | IC50 (DHODH) | inhibition at 10 µM (DHODH) | EC50 (Jurkat cells) |
| --- | --- | --- | --- | --- |
| Cc1cc(C(=O)O)c2[nH]c(-c3c(F)c(F)c(-c4cccc(F)c4)c(F)c3F)nc2c1 [I126] | 94% | 8.86 nM | 97% | – |
| Cc1cc(C(=O)NC(C)C)c2[nH]c(-c3c(F)c(F)c(-c4ccccc4)c(F)c3F)nc2c1 [I162] | 28.5% | – | 71.3% | – |
| O=C(O)c1cccc2[nH]c(-c3c(F)c(F)c(-c4cccnc4)c(F)c3F)nc12 [I136] | 68.4% | 282 nM | 89.5% | – |
| O=C(O)c1cccc2nc(-c3cccc4ccccc34)[nH]c12 [I39] | 12.3% | – | 19.9% | – |
| Cc1cc(C(=O)O)c2[nH]c(-c3ccc(-c4ccccc4)cc3F)nc2c1 [I28] | 75.4% | 403 nM | 96.3% | 206 nM |
| Cc1cc(C(=O)O)c2nc(-c3ccc(-c4cccs4)cc3)[nH]c2c1 [I149] | 47.5% | 1680 nM | 88.4% | – |
| Cc1cc(C(=O)O)c2nc(-c3ccc(-c4ccc(OCCN5CCCC5)cc4)cc3)[nH]c2c1 [I151] | 16% | – | 67.9% | – |
| Cc1cc(C(=O)NC2CC2)c2[nH]c(-c3c(F)c(F)c(-c4ccccc4)c(F)c3F)nc2c1 [I163] | 37.7% | – | 75.6% | – |
| Cc1cc(C(=O)O)c2[nH]c(-c3cc4ccccc4[nH]3)nc2c1 [I40] | 3.7% | – | 23.3% | – |
| O=C(O)c1cccc2nc(-c3c(F)c(F)c(-c4ccccc4OCc4ccccc4)c(F)c3F)[nH]c12 [I101] | 60.1% | 707 nM | 82.2% | – |
| Cc1cc(C(=O)O)c2nc(-c3cc(-c4ccccc4)cs3)[nH]c2c1 [I49] | 11% | – | 32.4% | – |
| Cc1cc(C(=O)O)c2nc(-c3ccc(-c4ccc(OCc5ccccn5)cc4)cc3)[nH]c2c1 [I119] | 40.3% | 2230 nM | 88.1% | – |
| Cc1cc(C(=O)O)c2nc(-c3ccc(-c4ccc(C(=O)NC5CCNCC5)cc4)cc3)[nH]c2c1 [I92] | 16.3% | 6640 nM | 59.7% | – |
| Cc1cc(C(=O)O)c2nc(-c3ccc(-c4ccc(Oc5ccccc5C(=O)O)cc4)cc3)[nH]c2c1 [I137] | 31% | 2240 nM | 65.1% | – |
| Cc1cc(C(=O)O)c2[nH]c(-c3c(F)c(F)c(-c4cccc(O)c4)c(F)c3F)nc2c1 [I104] | 110% | 13.5 nM | 104% | – |
| Cc1cc(C(=O)O)c2nc(-c3ccc(-c4cccc(F)c4F)cc3)[nH]c2c1 [I52] | 56.7% | 898 nM | 84.4% | – |
| N#Cc1ccc(Oc2ccc(-c3nc4cccc(C(=O)O)c4[nH]3)cc2)cc1 [I77, 2-[4-(4-Cyano-phenoxy)-phenyl]-3H-benzoimidazole-4-carboxylic acid] | 11.5% | – | 34.6% | – |
| O=C(O)c1cccc2[nH]c(-c3ccc(-c4cccc(OCc5ccccc5)c4)cc3)nc12 [I118] | 41.4% | 1300 nM | 84% | – |
| Cc1cc(C(=O)O)c2nc(-c3ccc(-c4ccc(NC(=O)[C@@H]5CCCN5)cc4)cc3)[nH]c2c1 [I89] | 52% | – | 94.1% | – |
| Cc1cc(C(=O)O)c2[nH]c(-c3ccc(-c4ccc(O)c(O)c4)cc3)nc2c1 [I91] | 62.3% | 645 nM | 94.2% | – |
| O=C(O)c1cccc2cc(-c3ccc(-c4ccccc4)cc3)[nH]c12 [I61] | 67.2% | 595 nM | 94.8% | 202 nM |
| O=C(O)c1cc(F)cc2nc(-c3ccc(-c4ccccc4)cc3F)[nH]c12 [Example 29, 6-Fluoro-2-(3-fluoro-biphenyl-4-yl)-3H-benzoimidazole-4-carboxylic acid] | 71.6% | – | 93.4% | – |

| Structure (SMILES) | inhibition at 1 µM (Jurkat cells) | IC50 (DHODH) | inhibition at 10 µM (DHODH) | EC50 (Jurkat cells) |
| --- | --- | --- | --- | --- |
| Cc1cc(C(=O)O)c2nc(-c3ccc(-c4ccc(Oc5ccc(C#N)cc5)cc4)cc3)[nH]c2c1 [I178] | 37.6% | – | 53.3% | – |
| Cc1cc(C(=O)O)c2nc(-c3c(F)c(F)c(-c4ccsc4)c(F)c3F)[nH]c2c1 [I139] | 94.9% | 50 nM | 105% | – |
| O=C(O)c1cccc2[nH]c(-c3ccc(Oc4ccccc4)cc3)nc12 [I10] | 35.1% | 2870 nM | 80.3% | – |
| O=C(O)c1cccc2[nH]c(-c3ccc(-c4ccc(OC(F)(F)F)cc4)cc3)nc12 [I16] | 18% | – | 39.9% | – |
| O=C(O)c1cccc2[nH]c(-c3ccc(Oc4ccccn4)cc3)nc12 [I70, 2-[4-(Pyridin-2-yloxy)-phenyl]-1H-benzoimidazole-4-carboxylic acid] | 14.6% | – | 58.6% | – |
| Cc1cc(C(=O)O)c2nc(-c3ccc(-c4ccccc4O)cc3)[nH]c2c1 [I167] | 34.5% | – | 82.7% | – |
| O=C(O)c1cccc2[nH]c(-c3c(F)c(F)c(-c4ccccc4F)c(F)c3F)nc12 [I131] | 78.8% | 18 nM | 79.3% | – |
| O=C(O)c1cccc2[nH]c(-c3ccc(-c4ccc(O)cc4)cc3)nc12 [I177] | 40.5% | – | 51.3% | – |
| O=C(O)c1cccc2nc(-c3c(F)c(F)c(-c4cccs4)c(F)c3F)[nH]c12 [I124] | 80.1% | 500 nM | 104% | – |
| Cc1cc(C(=O)O)c2[nH]c(-c3ccc(-c4cccc(OC5CCNCC5)c4)cc3)nc2c1 [I155] | 14.2% | – | 48.5% | – |
| N#Cc1ccccc1Oc1ccc(-c2ccc(-c3nc4c(C(=O)O)cccc4[nH]3)cc2)cc1 [I175] | 15% | – | 30% | – |
| Cc1cc(C(=O)O)c2[nH]c(-c3ccc(Oc4ccccc4)cc3)nc2c1 [I67] | 29.3% | 3410 nM | 74.2% | – |
| Cc1cc(C(=O)O)c2nc(-c3c(F)c(F)c(-c4cccnc4)c(F)c3F)[nH]c2c1 [I141] | 86.9% | 32 nM | 92.5% | 2600 nM |
| O=C(O)c1cccc2[nH]c(-c3ccc(-c4ccc(Oc5ccccn5)cc4)cc3)nc12 [I172] | 21% | – | 60% | – |
| Cc1cc(C(=O)O)c2nc(-c3ccc(-c4ccc(CN5CCCC5)cc4)cc3)[nH]c2c1 [I164] | 12.1% | – | 59.3% | – |
| O=C(O)c1cc(F)cc2[nH]c(-c3c(F)cc(-c4ccccc4)cc3F)nc12 [I68] | 78.4% | 276 nM | 97.8% | – |
| O=C(O)c1cccc2[nH]c(-c3ccc(-c4ccc(OCc5ccccc5)cc4)cc3)nc12 [I190] | 16.5% | – | 47.5% | – |
| O=C(O)c1cccc2[nH]c(-c3c(F)c(F)c(-c4cc(F)cc(F)c4)c(F)c3F)nc12 [I129] | 70.5% | 20 nM | 90.8% | – |
| Cc1cc(C(=O)O)c2nc(-c3ccc(-c4ccc(Oc5ccccc5C=O)cc4)cc3)[nH]c2c1 [I142] | 54.5% | 1050 nM | 84.7% | – |
| Cc1cc(C(=O)O)c2[nH]c(-c3ccc(Oc4ccc(C#N)cc4)cc3)nc2c1 [I78, 2-[4-(4-Cyano-phenoxy)-phenyl]-6-methyl-3H-benzoimidazole-4-carboxylic acid] | 22.2% | – | 58.5% | – |
| COc1cccc(-c2ccc(-c3nc4c(C(=O)O)cccc4[nH]3)cc2)c1 [I11] | 9.4% | – | 13.7% | – |
| Cc1cc(C(=O)O)c2[nH]c(-c3ccc(-c4ccc(OCCN5CCCCC5)cc4)cc3)nc2c1 [I154] | 8.7% | – | 49.1% | – |
